Test results from US20100190187A1, “Screening Assays for Antagonists and Analyses of Cardiac Hypertrophy” (The Regents of the University of Michigan Office of …, priority 2006, published 2010).

Tests used:
HL-1 cells [1] = assay: Immunofluorescence staining of hypertrophy related proteins in HL-1 cells; format: cell-based, murine; conditions: FIG. 12
Text: (§1) Immunofluorescent staining of HL-1 cells can be carried out in a method similar to that previously described (Tevosian et al., 1999), except that 0.5% CHAPS (Fisher) can be used instead of Triton X-100. Briefly, HL-1 cells grown on 2-well slides (Lab-Tek) are initially preserved with Sprayfix cytology fixative. To prepare for staining, the slides are washed in EtOH and water, and then briefly washed with PBS. Cells were fixed with cold acetone, rinsed with PBS, and permeabilized by three ten minute washes with 0.5% CHAPS/PBS. Next, the cells are blocked overnight with 5% milk/10% goat serum/PBS. The permeabilization step is then repeated prior to incubation with the primary antibody in 10% goat serum/0.5% CHAPS/PBS with the antibodies and dilutions listed below. After a one-hour incubation with the primary antibodies, the slides are washed three times in the 10% goat serum/0.5% CHAPS/PBS, then three times in 0.5% CHAPS/PBS. Secondary antibodies, as described below, can be incubated for one-hour with 1% BSA/0.5% CHAPS/PBS. After washing with 0.5% CHAPS/PBS the cells are stained for five minutes with 4,6-diamidine-2-phenylidole-dihydrochloride (DAPI Nucleic Acid Stain; Invitrogen) and cover slips are mounted with Prolong Gold anti-fade reagent (Invitrogen). The following antibody combinations can be used: rabbit anti-mouse VDR (sc-1008; Santa Cruz Biotech; 1:100 dilution), rabbit anti-mouse ANP (AB 5490; Chemicon; 1:50 dilution), and rabbit anti-mouse c-myc (sc-764; Santa Cruz Biotech; 1:100 dilution), all followed by FITC conjugated goat anti-rabbit (AP 307F; Chemicon; 1:400). Mouse monoclonal anti-myotrophin (V 11220, BD Transduction Laboratory; 1:50) followed by FITC conjugated goat anti-mouse (F-0257; Sigma; 1:128), and goat anti-mouse calbindin-9 (sc-18038. Santa Cruz Bio; 1:100) followed by FITC conjugated rabbit anti-goat (AP 106F; Chemicon; 1:100). Slides can be analyzed on an Olympus BX 51 immunofluorescence microscope and photomicrographs can be recorded as digital images.
as §1, with “incubation” for “incubation with the primary antibodies,”, “The following antibody combinations can be used: rabbit anti-mouse VDR (sc-1008; Santa Cruz Biotech; 1:100 dilution), rabbit anti-mouse ANP (AB 5490; Chemicon; 1:50 dilution), and rabbit anti-mouse c-myc (sc-764; Santa Cruz Biotech; 1:100 dilution), all followed by FITC conjugated goat anti-rabbit (AP 307F; Chemicon; 1:400). Mouse monoclonal anti-myotrophin (V 11220, BD Transduction Laboratory; 1:50) followed by FITC conjugated goat anti-mouse (F-0257; Sigma; 1:128), and goat anti-mouse calbindin-9 (sc-18038. Santa Cruz Bio; 1:100) followed by FITC conjugated rabbit anti-goat (AP 106F; Chemicon; 1:100).” left out

HL-1 cells [2] = assay: HL-1 cell morphology by light microscopy; format: cell-based, murine; conditions: FIG. 11, versus control vehicle
Protocol: In some embodiments, screening assays can be included to determine whether the test compound can alter the structural morphology of the cardiac myocyte in cell culture. HL-1 cells can be incubated in the presence and absence of a test compound to determine whether structural changes can be observed by light microscopy.
HL-1 cells are obtained from Dr. W. C. Claycomb, Louisiana State University Medical Center, New Orleans, La. HL-1 cells (passages 55-75) are maintained at 37° C. under a 5% C02/air atmosphere in Claycomb medium (JRL Bioscience) supplemented with 10% fetal bovine serum, 0.29 mg/mL L-glutamine, 100 units/mL penicillin, 100 μg/mL streptomycin (all Gibco), and 0.1 mM norepinephrine (Sigma). The medium can be replaced approximately every 24 hours. HL-1 cells were grown in T25 culture flasks which were precoated overnight with 2 μg/cm fibronectin/0.02% gelatin solution. HL-1 cells were maintained until they reached confluence at which time the cells were removed by trypsinization and passed into another T25 culture flask coated with gelatin/fibronectin. Cells can be ultimately passed into T75 flasks to increase the number of cells prior to experimentation. Vitamin D experiments are performed in either T75 flasks, or Lab-Tech 2-well slides (for immunohistochemistry), 24 hours after a 1:2 split of confluent cells. […]

## C=C1CC[C@H](O)C/C1=C/C=C1\CCC[C@]2(C)[C@@H]([C@H](C)CCCC(C)C)CC[C@@H]12 [Vitamin D3]
HL-1 cells [1]
  expression of ANP: inhibited or reduced the expression
  expression of VDR: increased the expression
  expression of c-myc: inhibited or reduced the expression
  expression of calbindin 9: inhibited or reduced the expression
  expression of myotrophin: increased the expression
HL-1 cells [2]
  structural morphology of HL-1 cells: growth and presence of structural appendages called dendrites
